These results are taken from US8580803B2, “Substituted pyrrolo-aminopyrimidine compounds” (ArQule, Inc., priority 2009, dated 2013).

Data set [1] deals with AKT1 (Homo sapiens, UniProt P31749). Nature of the data set: AKT Kinase Activity Assay (AlphaScreen, crosstide). Conditions: Average of Akt1 biochemical assay. Here is the method: AKT1 activity was assayed using the GSK3-derived biotinylated peptide substrate, crosstide (biotin-GRPRTSSFAEG), and AlphaScreen™ (Amplified Luminescent Proximity Homogeneous Assay) technology. AKT1 activation was achieved by the addition of the activating kinases PDK1 and MAPKAPK2, lipid vesicles, and ATP. The extent of peptide phosphorylation was determined using a phospho-AKT substrate antibody and acceptor beads conjugated to Protein A and donor beads conjugated to streptavidin that bind to the biotin on the peptide. Excitation of the donor beads converted ambient oxygen to excited singlet oxygen which, when in close proximity to acceptor beads, reacted with acceptor beads resulting in signal amplification.
Test inhibitors and controls (Abbott inhibitor, Merck pre-clinical inhibitor, and Merck clinical inhibitor) were prepared in 10% DMSO at 10-fold the desired final concentration, and added to each well of a reaction plate (Corning 96-well half-area solid white nonbinding surface plate) in a volume of 2.5 μL. […] After a 20 minute pre-incubation at room temperature, the kinase reaction was initiated by the addition of 5 μL of an activation mixture diluted in assay buffer containing biotinylated crosstide, PDK1, MAPKAPK2, DOPS/DOPC, PtdIns(3,4,5)P3, and ATP for final concentrations of 60 nM biotinylated crosstide, 0.1 nM PDK1, 0.7 nM MK2, 5.5 μM DOPS, 5.5 μM DOPC, 0.5 μM PtdIns(3,4,5)P3, and 50 μM ATP. The plates were incubated for 30 minutes at room temperature, and then stopped in the dark by the addition of 10 μL stop/detection mixture prepared in assay buffer containing EDTA, AlphaScreen™ Streptavidin Donor and Protein A Acceptor beads, and phospho-AKT substrate antibody for final concentrations of 10 mM EDTA, 500 ng/well of both AlphaScreen™ Streptavidin Donor beads and Protein A Acceptor beads, and phospho-AKT substrate antibody at a final dilution of 1:350. Assay plates were incubated for 90 minutes at room temperature in the dark, and the plates were read on a Perkin Elmer Envision Multilabel plate reader ([…]).
(In general: Alpha assays give light when donor and acceptor beads are brought close together.)

Data set [2] addresses T1, ACK1 (110-489) (Homo sapiens, UniProt Q07912).
T1 construct: ACK1 110-489 (12.5 μl) were added to each well
As to the kind of experiment: ACK1 Activity Assay (AlphaScreen, PYK2-derived peptide). Type of data set: biochemical. On the procedure: The extent of peptide phosphorylation was determined by using acceptor beads conjugated to phosphotyrosine antibody that recognizes the phosphorylated peptide and donor beads conjugated to streptavidin that binds to the biotin on the peptide. Excitation of the donor beads converted ambient oxygen to excited singlet oxygen which when in close proximity to acceptor beads, reacted with acceptor beads where the signal was amplified.
Test inhibitors and controls (N-(2,6-dimethylphenyl)-4-(2-ethoxyphenoxy)-2-[(4-piperazin-1-ylphenyl)amino]pyrimidine-5-carboxamide) were prepared in 10% DMSO at 10× the desired final concentration. […] After a 20-min incubation at room temperature, the kinase reaction was initiated by the addition of 10 μl of PYK2/ATP mixture. […] The plates were incubated for 60 min at room temperature. The reaction was stopped by the addition of 10 μl stop/detection mixture which contains EDTA (final concentration is 10 mM), AlphaScreen™ Streptavidin Donor beads (final concentration is 500 ng/well) and AlphaScreen™ Phospho-tyrosine (P-Tyr-100) Acceptor beads (final concentration is 500 ng/well) were diluted in assay buffer. This reagent addition step was performed in the dark because the AlphaScreen™ beads are light-sensitive. The plate was incubated for 60 min at room temperature in the dark and the plates were read on the Perkin Elmer Envision Multilabel plate reader ([…]).

Sequence of AKT1 (P31749 whole entry): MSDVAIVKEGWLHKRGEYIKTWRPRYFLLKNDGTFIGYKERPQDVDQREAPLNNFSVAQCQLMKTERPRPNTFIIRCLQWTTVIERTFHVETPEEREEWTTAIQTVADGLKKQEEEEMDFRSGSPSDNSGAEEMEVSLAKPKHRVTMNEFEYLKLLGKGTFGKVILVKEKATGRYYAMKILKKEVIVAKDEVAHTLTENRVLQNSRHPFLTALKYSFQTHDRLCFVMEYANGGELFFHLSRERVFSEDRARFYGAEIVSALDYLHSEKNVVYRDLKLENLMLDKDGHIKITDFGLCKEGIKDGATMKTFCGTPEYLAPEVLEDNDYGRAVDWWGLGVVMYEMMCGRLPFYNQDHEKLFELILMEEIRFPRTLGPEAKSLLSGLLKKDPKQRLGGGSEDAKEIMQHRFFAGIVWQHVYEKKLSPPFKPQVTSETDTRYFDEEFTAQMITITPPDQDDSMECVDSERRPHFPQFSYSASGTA
T1 sequence (Q07912 110-489, species assumed): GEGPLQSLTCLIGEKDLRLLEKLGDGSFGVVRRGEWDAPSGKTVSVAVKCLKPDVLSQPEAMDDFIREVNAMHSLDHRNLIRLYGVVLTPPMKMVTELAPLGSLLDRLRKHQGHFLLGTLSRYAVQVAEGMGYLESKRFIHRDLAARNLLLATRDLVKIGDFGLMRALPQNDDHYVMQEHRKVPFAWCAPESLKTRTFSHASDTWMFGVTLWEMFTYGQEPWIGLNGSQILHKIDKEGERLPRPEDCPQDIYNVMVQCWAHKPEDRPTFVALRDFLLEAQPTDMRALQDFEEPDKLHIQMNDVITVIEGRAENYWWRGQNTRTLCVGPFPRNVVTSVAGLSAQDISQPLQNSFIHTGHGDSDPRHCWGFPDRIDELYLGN

As for `O=C(NCCCN1CCCC1)c1cccc(Nc2ncnc3[nH]cc(C(=O)c4ccccc4)c23)c1` [3-[(5-benzoyl-7H-pyrrolo[2,3-d]pyrimidin-4-yl)amino]-N-(3-pyrrolidin-1-ylpropyl)benzamide], the IC50 in data set [1] turned out to be 899 nM; in data set [2], 1200 nM.
Turning to `CNC(=O)c1cccc(Nc2ncnc3[nH]cc(C(=O)c4ccccc4)c23)c1` [3-((5-benzoyl-7H-pyrrolo[2,3-d]pyrimidin-4-yl)amino)-N-methylbenzamide], in data set [1], the IC50 was found to be 5120 nM.
Turning to `CC(=O)NCCC(=O)Nc1cccc(Nc2ncnc3[nH]cc(C(=O)c4ccccc4)c23)c1` [3-acetamido-N-(3-((5-benzoyl-7H-pyrrolo[2,3-d]pyrimidin-4-yl)amino)phenyl)propanamide], the IC50 is 264 nM in data set [1] and 1340 nM in data set [2].
In the same order, the values of `O=C(c1ccccc1)c1c[nH]c2ncnc(Nc3cccc(NC(=O)C4CCCC4)c3)c12` [N-(3-{[5-(phenylcarbonyl)-7H-pyrrolo[2,3-d]pyrimidin-4-yl]amino}phenyl) cyclopentanecarboxamide] are 7010 nM and 19000 nM.
On to `O=C(Nc1ccccc1)c1cccc(Nc2ncnc3[nH]cc(C(=O)c4ccccc4)c23)c1` [drawing 239, 3-[(5-benzoyl-7H-pyrrolo[2,3-d]pyrimidin-4-yl)amino]-N-phenylbenzamide], for which the IC50 in data set [1] amounted to 1400 nM. This counts as single-digit micromolar.
Regarding `CN1CCC(NC(=O)c2cccc(Nc3ncnc4[nH]cc(C(=O)c5ccccc5)c34)c2)CC1` [3-[(5-benzoyl-7H-pyrrolo[2,3-d]pyrimidin-4-yl)amino]-N-(1-methylpiperidin-4-yl)benzamide], the concentration for half-maximal inhibition (IC50) in data set [1] was 1440 nM; in data set [2], 592 nM.
Take `CC(=O)Nc1cccc(Nc2ncnc3c2c(C(=O)c2ccccc2)cn3C)c1` [drawing 273, N-(3-{[7-methyl-5-(phenylcarbonyl)-7H-pyrrolo[2,3-d]pyrimidin-4-yl]amino}phenyl)acetamide]: in data set [1], inhibition was half-maximal at 2510 nM (IC50).
On to `CN(C)CC(=O)Nc1cccc(Nc2ncnc3[nH]cc(C(=O)c4ccccc4)c23)c1` [N,N-dimethyl-N-(3-{[5-(phenylcarbonyl)-7H-pyrrolo[2,3-d]pyrimidin-4-yl]amino}phenyl)glycinamide], for which the IC50 in data set [1] is 1120 nM; in data set [2] it was 672 nM.
Compound `O=C(c1ccccc1)c1c[nH]c2ncnc(Nc3cccc(CCO)c3)c12` gave a melting point greater than 300 °C.
For the compound `O=C(NCCCCN1CCCC1)c1cccc(Nc2ncnc3[nH]cc(C(=O)c4ccccc4)c23)c1` [3-[(5-benzoyl-7H-pyrrolo[2,3-d]pyrimidin-4-yl)amino]-N-(4-pyrrolidin-1-ylbutyl)benzamide], the IC50 in data set [1] stood at 676 nM; in data set [2], 2170 nM.
`Cn1cc(C(=O)c2ccccc2)c2c(Nc3cccc(N)c3)ncnc21` yielded a melting point of 170 to 173 °C.
The same measure, in the same setting: the value for `CC(C)(C)OC(=O)NCc1ccc(Nc2ncnc3[nH]cc(C(=O)c4ccccc4)c23)cc1` was 256 to 258 °C.
The same measure, in the same setting: next, `NCc1cccc(Nc2ncnc3[nH]cc(C(=O)c4ccccc4)c23)c1`: 210 to 212 °C; `Nc1cc(Cl)cc(Nc2ncnc3[nH]cc(C(=O)c4ccccc4)c23)c1`: greater than 300 °C; `O=C(c1ccccc1)c1c[nH]c2ncnc(Nc3cccc(CO)c3)c12`: 273 to 275 °C.
In turn, `O=C(Nc1ccc(Nc2ncnc3[nH]cc(C(=O)c4ccccc4)c23)cc1)c1ccccc1` came in with a melting point greater than 300 °C.
The same measure, in the same setting: the value for `CNC(=O)c1cccc(Nc2ncnc3[nH]cc(C(=O)c4cccc(F)c4)c23)c1` was greater than 300 °C.
For `O=C(O)c1cccc(Nc2ncnc3[nH]cc(C(=O)c4ccccc4)c23)c1` [3-[(5-benzo-7H-pyrrolo[2,3-d]pyrimidin-4-yl)amino]benzoic acid], the IC50 in data set [1] amounted to 3000 nM; in data set [2], 2190 nM.
Consider `O=C(Nc1ccccc1)c1cccc(Nc2ncnc3[nH]cc(C(=O)c4ccccc4)c23)c1`, for which the melting point was greater than 300 °C.
On to `CC(=O)NCC(=O)Nc1cccc(Nc2ncnc3[nH]cc(C(=O)c4ccccc4)c23)c1` [2-acetamido-N-(3-((5-benzoyl-7H-pyrrolo[2,3-d]pyrimidin-4-yl)amino)phenyl)acetamide], for which the IC50 in data set [1] was determined as 94.9 nM; in data set [2] it was 666 nM.
In the case of `O=C(CCc1cccnc1)Nc1cccc(Nc2ncnc3[nH]cc(C(=O)c4ccccc4)c23)c1` [N-(3-{[5-(phenylcarbonyl)-7H-pyrrolo[2,3-d]pyrimidin-4-yl]amino}phenyl)-3-pyridin-3-ylpropanamide], the 50% inhibitory concentration (IC50) in data set [1] was 288 nM; in data set [2] it was 1070 nM.
The corresponding values for `NC(=O)CCC(=O)Nc1cccc(Nc2ncnc3[nH]cc(C(=O)c4ccccc4)c23)c1` [N-(3-{[5-(phenylcarbonyl)-7H-pyrrolo[2,3-d]pyrimidin-4-yl]amino}phenyl)butanediamide] are 1210 nM and 876 nM.
On to `O=C(Nc1ccccc1)Nc1cccc(Nc2ncnc3[nH]cc(C(=O)c4ccccc4)c23)c1`, for which the melting point is greater than 300 °C.
Turning to `CC(=O)Nc1cccc(Nc2ncnc3[nH]cc(C(=O)c4ccccc4)c23)c1` [N-{3-[(5-benzoyl-7H-pyrrolo[2,3-d]pyrimidin-4-yl)amino]phenyl}acetamide], the IC50 turned out to be 2170 nM in data set [1] and 3870 nM in data set [2].
The compound `Nc1cccc(Nc2ncnc3[nH]cc(C(=O)c4ccccc4)c23)c1` displayed a melting point of 280 to 282 °C.
On the same count and under the same terms, next, `NCc1ccc(Nc2ncnc3[nH]cc(C(=O)c4ccccc4)c23)cc1`: 255 to 257 °C; `CC(C)(C)NC(=O)Nc1cccc(Nc2ncnc3[nH]cc(C(=O)c4ccccc4)c23)c1`: 185 to 187 °C.
`CC(C)(C)OC(=O)Nc1ccc(Nc2ncnc3[nH]cc(C(=O)c4ccccc4)c23)cc1` showed a melting point of 274 to 280 °C.
Still for that read-out and setting: the value for `O=C(Nc1cccc(Nc2ncnc3[nH]cc(C(=O)c4ccccc4)c23)c1)c1ccccc1` was greater than 300 °C.
For `O=C(NCC1CCCCC1)Nc1cccc(Nc2ncnc3[nH]cc(C(=O)c4ccccc4)c23)c1`, the melting point was 180 to 182 °C.
The compound `CC(=O)Nc1cccc(Nc2ncnc3[nH]cc(C(=O)c4ccccc4C)c23)c1` had a melting point greater than 300 °C.
Same read-out and setting: next, `O=C(NCCCN1CCCCC1)c1cccc(Nc2ncnc3[nH]cc(C(=O)c4ccccc4)c23)c1`: greater than 300 °C; `COC(=O)c1cc(NC(=O)CNC(C)=O)cc(Nc2ncnc3[nH]cc(C(=O)c4ccccc4)c23)c1`: greater than 300 °C; `CC(=O)Nc1cccc(Nc2ncnc3[nH]cc(C(=O)c4cccc(F)c4)c23)c1`: greater than 300 °C.
The same measure, in the same setting: next, `Nc1cccc(Nc2ncnc3[nH]cc(C(=O)c4ccccc4)c23)n1`: greater than 300 °C; `CC(C)(C)OC(=O)Nc1cccc(Nc2ncnc3[nH]cc(C(=O)c4ccccc4)c23)c1`: 288 to 290 °C.
On to `Cn1cc(CC(=O)Nc2cccc(Nc3ncnc4[nH]cc(C(=O)c5ccccc5)c34)c2)c2ccccc21` [2-(1-methyl-1H-indol-3-yl)-N-(3-{[5-(phenylcarbonyl)-7H-pyrrolo[2,3-d]pyrimidin-4-yl]amino}phenyl)acetamide], for which the 50% inhibitory concentration (IC50) in data set [1] was found to be 3090 nM. In other words, the single-digit micromolar range.
With `O=C(Cc1cncc(Br)c1)Nc1cccc(Nc2ncnc3[nH]cc(C(=O)c4ccccc4)c23)c1`, the melting point was greater than 300 °C.
Same read-out and setting: the value for `CNC(=O)c1cccc(Nc2ncnc3[nH]cc(C(=O)c4cccc5ccccc45)c23)c1` was greater than 300 °C; that for `CCOC(=O)c1cccc(Nc2ncnc3[nH]cc(C(=O)c4ccccc4)c23)c1` was 256 to 258 °C.
For the compound `NCc1cccc(Nc2ncnc3[nH]cc(C(=O)c4ccccc4)c23)c1` [drawing 278, (4-{[3-(aminomethyl)phenyl]amino}-7H-pyrrolo[2,3-d]pyrimidin-5-yl)(phenyl) methanone], 186 nM corresponded to half-maximal inhibition in data set [1] (IC50).

As usually defined, the IC50 is the point on the concentration scale where inhibition reaches its midpoint. A high value points to lower potency. What is called melting point is the temperature, or range, at which the solid turns liquid.
